Measured values: PubChem BioAssay (NCI)
Several values for one entry are separate records, joined by “and”; a condition that tells them apart may be missing. Equal entries are not always repeated.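 All cell lines were grown in 96-well plates and treated with compound for 48 hours. GI50 is the concentration that inhibits growth by half. The concentration for full growth arrest is given as TGI.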

What was measured:
Experiment in all cases: DTP human tumour cell line panel, 48 h
[1] = tested on: MDA-MB-468 breast
[2] = tested on: DU-145 prostate
[3] = tested on: SW-620 colon
[4] = tested on: HS 578T breast
[5] = tested on: UACC-257 melanoma
[6] = tested on: CCRF-CEM leukemia
[7] = tested on: K-562 leukemia
[8] = tested on: UO-31 renal
[9] = tested on: RPMI-8226 leukemia
[10] = tested on: HOP-62 NSCLC
[11] = tested on: BT-549 breast
[12] = tested on: ACHN renal
[13] = tested on: EKVX NSCLC
[14] = tested on: LOX IMVI melanoma
[15] = tested on: SK-MEL-5 melanoma
[16] = tested on: RXF 393 renal
[17] = tested on: A498 renal
[18] = tested on: NCI-H226 lung
[19] = tested on: NCI-H23 lung
[20] = tested on: MALME-3M melanoma
[21] = tested on: SF-539 CNS
[22] = tested on: MCF7 breast
[23] = tested on: KM12 colon
[24] = tested on: TK-10 renal
[25] = tested on: 786-0 renal
[26] = tested on: NCI-H460 lung
[27] = tested on: PC-3 prostate
[28] = tested on: IGROV1 ovarian
[29] = tested on: OVCAR-4 ovarian
[30] = tested on: SR leukemia
[31] = tested on: COLO 205 colon
[32] = tested on: M14 melanoma
[33] = tested on: MOLT-4 leukemia
[34] = tested on: HT29 colon
[35] = tested on: SK-MEL-28 melanoma
[36] = tested on: A549 NSCLC
[37] = tested on: MDA-MB-231 breast
[38] = tested on: SNB-19 CNS
[39] = tested on: SNB-75 CNS
[40] = tested on: SK-OV-3 ovarian
[41] = tested on: UACC-62 melanoma
[42] = tested on: OVCAR-3 ovarian
[43] = tested on: T-47D breast
[44] = tested on: HL-60(TB) leukemia
[45] = tested on: HCT-15 colon
[46] = tested on: HCT-116 colon
[47] = tested on: CAKI-1 renal
[48] = tested on: U251 CNS
[49] = tested on: SN12C renal
[50] = tested on: HOP-92 NSCLC
[51] = tested on: SF-268 CNS
[52] = tested on: HCC-2998 colon
[53] = tested on: NCI-H522 lung
[54] = tested on: OVCAR-5 ovarian
[55] = tested on: OVCAR-8 ovarian
[56] = tested on: SF-295 CNS

CC(N)C(Cc1ccc(Cl)cc1)c1ccc(Cl)cc1 (stereo not given)
GI50 [1]: 2960 nM
TGI [1]: 11700 nM

CC(=O)Nc1ccc2c(c1)C(c1ccccc1Cl)=Nc1c(n[nH]c1C)N2
GI50 [1]: 1630 nM
TGI [1]: > 25000 nM

Fc1cc2[nH]ncc2c2c3c(c(-c4cn[nH]c4C(F)(F)F)nc12)CCCC3
GI50 [1]: 1580 nM
TGI [1]: 4350 nM

CN(C)c1ccnc(CNCCSC2(c3ccc(C(F)(F)F)cc3)c3ccccc3CCc3ccccc32)c1
GI50 [2]: 3080 nM
TGI [2]: 11300 nM
GI50 [3]: 446 nM
TGI [3]: 12500 nM
GI50 [4]: 1620 nM
TGI [4]: 7580 nM
GI50 [5]: 3670 nM
TGI [5]: 15900 nM
GI50 [6]: 370 nM
TGI [6]: 6350 nM
GI50 [7]: 336 nM
TGI [7]: 1860 nM
GI50 [8]: 2460 nM
TGI [8]: 16000 nM
GI50 [9]: 1180 nM
TGI [9]: 6420 nM
GI50 [10]: 2200 nM
TGI [10]: 13600 nM
GI50 [11]: 2760 nM
TGI [11]: 7360 nM
GI50 [12]: 909 nM
TGI [12]: 15000 nM
GI50 [13]: 653 nM
TGI [13]: 12700 nM
GI50 [14]: 1140 nM
TGI [14]: 2430 nM
GI50 [15]: 1150 nM
TGI [15]: 2460 nM
GI50 [16]: 2170 nM
TGI [16]: 9120 nM
GI50 [17]: 14000 nM
TGI [17]: 32100 nM
GI50 [18]: 2380 nM
TGI [18]: 13900 nM
GI50 [19]: 2720 nM
TGI [19]: 11800 nM
GI50 [20]: 1440 nM
TGI [20]: 3090 nM
GI50 [21]: 675 nM
TGI [21]: 2470 nM
GI50 [22]: 356 nM
TGI [22]: 4320 nM
GI50 [23]: 1260 nM
TGI [23]: 5160 nM
GI50 [24]: 3910 nM
TGI [24]: 16100 nM
GI50 [25]: 1900 nM
TGI [25]: 11200 nM
GI50 [26]: 603 nM
TGI [26]: 2540 nM
GI50 [27]: 1050 nM
TGI [27]: 12000 nM
GI50 [28]: 1400 nM
TGI [28]: 13600 nM
GI50 [29]: 4050 nM
TGI [29]: 17300 nM
GI50 [30]: 345 nM
TGI [30]: 1620 nM
GI50 [1]: 293 nM
TGI [1]: 906 nM
GI50 [31]: 1020 nM
TGI [31]: 2420 nM
GI50 [32]: 465 nM
TGI [32]: 2970 nM
GI50 [33]: 1600 nM
TGI [33]: 4450 nM
GI50 [34]: 1680 nM
TGI [34]: 4110 nM
GI50 [35]: 3760 nM
TGI [35]: 15900 nM
GI50 [36]: 1300 nM
TGI [36]: 15100 nM
GI50 [37]: 479 nM
TGI [37]: 2750 nM
GI50 [38]: 1240 nM
TGI [38]: 14300 nM
GI50 [39]: 1840 nM
TGI [39]: 8920 nM
GI50 [40]: 3320 nM
TGI [40]: 13400 nM
GI50 [41]: 3240 nM
TGI [41]: 14500 nM
GI50 [42]: 1310 nM
TGI [42]: 10500 nM
GI50 [43]: 3420 nM
TGI [43]: 15600 nM
GI50 [44]: 394 nM
TGI [44]: 1960 nM
GI50 [45]: 403 nM
TGI [45]: 11000 nM
GI50 [46]: 365 nM
TGI [46]: 1780 nM
GI50 [47]: 2110 nM
TGI [47]: 14800 nM
GI50 [48]: 439 nM
TGI [48]: 3560 nM
GI50 [49]: 590 nM
TGI [49]: 8250 nM
GI50 [50]: 2120 nM
TGI [50]: 11700 nM
GI50 [51]: 3240 nM
TGI [51]: 17700 nM
GI50 [52]: 537 nM
TGI [52]: 1830 nM
GI50 [53]: 473 nM
TGI [53]: 4260 nM
GI50 [54]: 2040 nM
TGI [54]: 9120 nM
GI50 [55]: 739 nM
TGI [55]: 10800 nM
GI50 [56]: 467 nM
TGI [56]: 2340 nM

CN(c1ncccc1CNc1nc(Nc2ccc3c(c2)CC(=O)N3)ncc1C(F)(F)F)S(C)(=O)=O
GI50 [1]: 1830 nM and 1620 nM
TGI [1]: 4040 nM and 4840 nM
